Assay results reported in US10308938B2, “Compositions and methods to activate or inhibit toll-like receptor signaling” (priority 2014, dated 2019).
“Also recorded” adds a separate entry of the source.

Tests used:
Format in all cases: cell-based, human
[1] = system: CD4^+ T cells; experiment: Proliferation of CFSE-labeled CD4+ T cells stimulated with anti-CD3 and anti-CD28 in the presence of TLR ligands; conditions: compared to control
Text: (§1) Cell isolation and FACS sorting of T cell populations. Peripheral blood mononuclear cells (PBMC) were isolated from healthy donors by Ficoll Hypaque gradient centrifugation. Total CD4^+ T cells were isolated by negative selection using CD4^+ T cell isolation kit (StemCell Technologies, Vancouver, BC) and stained for fluorescence-activated cell sorting (FACS) with the following antibodies: anti-CD45RO (clone UCHL1), CD45RA (clone H1100), CD25 (clone M-A251) (all from BD Biosciences) and CD127 (clone eBioRDR5) from eBioscience (San Diego, Calif.). The Treg (CD4^+CD25^hiCD127^low/neg) memory T cell (CD4^+CD45RA^−CD45RO^+CD25^low/neg+) and naïve T cell (CD4^+CD45RA^+CD45RO^−CD25^low/neg) populations were sorted on a FACS Aria (BD Biosciences). Unless specified, CD4^+ T cells used in the experiments were Treg-depleted CD4^+ T cells and they were sorted as CD4^+CD25^pos/lowCD127^+. The purity of the sorted CD4^+ T cell population was >98% as assessed by CD3 and CD4 staining after sort. CD14^+ cells were isolated by positive selection using EasySep™ Human CD14 Positive Selection Kit (StemCell Technologies).
(§2) Cell activation and intracellular staining.
While examining the costimulatory role of TLR on CD4^+ T cells, it was unexpectedly discovered that entry of CD4^+ cells into cell cycle with T cell receptor cross-linking and anti-CD28 was blocked by TLR7 engagement. Specifically, CD4^+ T cells were stimulated with anti-CD3 and anti-CD28 in the presence of different TLR agonists followed by analysis of proliferation and cytokine secretion.

[2] = system: CD4^+ T cells; experiment: Cytokine secretion by stimulated CD4+ T cells, ELISA; conditions: day 3 after stimulation
Text: as §2
(§3) Enzyme-linked immunosorbent assay.

[3] = system: CD4^+ T cells; experiment: Intracellular cytokine staining after PMA and ionomycin restimulation; conditions: increasing doses of IMQ; day 4, 4 hour PMA and ionomycin
Experimental: Cell activation and intracellular staining. T populations were stimulated with 1 μg/ml anti-CD3, 1 μg/ml anti-CD28 and 10 U/ml IL-2 in the presence or absence of TLR ligands. […] For both extracellular and intracellular stainings, LIVE/DEAD reagent (Molecular Probes) was used to exclude dead cells before surface staining. […] Samples were run on a BD Fortessa instrument and analyzed with FlowJo (TreeStar).

[4] = system: CD4^+ T cells; experiment: Conversion into regulatory T cells (Foxp3 expression, IL-10 secretion)
Text: as §2, §3

[5] = system: CD14^+ monocytes; experiment: Activation of CD14+ monocytes (surface staining, cytokine ELISA)
Text: as §1, §2, §3

[6] = system: NFAT1; experiment: NFAT1 dephosphorylation, Western blot; conditions: 0, 45 and 90 minutes; confirmed with phospho-specific antibody, 40 minutes
Experimental: Western blotting. Total protein extracts were isolated with M-PER protein extraction kit (Thermo Scientific) and quantified with a BCA kit (Thermo Scientific). 20 μg of protein extract were loaded per lane, separated on a 10% SDS-PAGE gel and transferred to a nitrocellulose membrane. anti-NFAT1 and anti-β-actin were obtained from Cell Signaling Technology. Anti-pNFAT1 (Ser213/217/229) antibody was obtained from Santa Cruz Biotechnology (Dallas, Tex.). Primary antibodies were detected by secondary anti-rabbit-HRP-conjugated (Cell Signaling Technology) and images were obtained in a CCD camera instrument. Bands were quantified with QuantityOne software.
An immediate consequence of increased concentration of intracellular calcium is the activation of the nuclear factor of activated T-cells (NFAT1), a transcription factor that is highly phosphorylated in resting cells and becomes dephosphorylated by the calcium/calmodulin-dependent phosphatase calcineurin when the concentration of intracellular calcium is increased. To examine whether IMQ stimulation induced the dephosphorylation of NFAT1, we stimulated CD4^+ T cells with IMQ and purified total protein extracts at 0, 45 and 90 minutes (FIG. 25A).

[7] = system: memory T cells; experiment: IMQ pretreatment, washout, rest and restimulation with anti-CD3 and anti-CD28; conditions: IMQ 2 hours, 12 hours rest, anti-CD3 and anti-CD28
Experimental: as §3
To determine if pretreatment of CD4^+ T cells with IMQ would be sufficient to diminish their subsequent cytokine secretion and proliferative response to a full stimulation, memory T cells were pre-treated with IMQ for 2 hours and rested for 12 hours after washout to remove traces of IMQ and then stimulated with anti-CD3 and anti-CD28 for 3 days.

[8] = system: CD4^+ T cells; experiment: Phosphorylation status of signaling molecules by flow cytometry; Jun gene expression
Text: TLR7 signaling has predominantly been studied in APC where it is linked to IRF7, NFκB and JNK activation through either MyD88/IRAK4-dependent or -independent pathways. In order to examine the consequences of TLR7 signaling on CD4^+ T cells in relation to ‘conventional’ TLR signaling, ex vivo isolated CD4^+ T cells from healthy individuals were stimulated with IMQ and the phosphorylation status of IRAK4, JNK, NFkB (p65), p38 MAPK and IRF7 was examined by flow cytometry (FIG. 31A). […] One of the targets that are phosphorylated by activated JNK is Jun, a component of AP-1, which is an essential transcription factor involved in costimulatory signal transduction. It was determined if inhibition of JNK activity by IMQ could explain, at least in part, the anergic phenotype observed in CD4^+ T cells after IMQ stimulation in the presence of full stimulation with TCR and costimulatory signals. To test this hypothesis, CD4^+ T cells were stimulated with PMA and Ionomycin in the presence or absence of IMQ, and the phosphorylation status of JNK and Jun was examined at different time points. NFκB and p38 were used as positive controls (FIGS. 31B and 31C).

[9] = with PMA and Ionomycin stimulation
[10] = with PMA and Ionomycin stimulation, listed as IMQ

`CC(C)Cn1cnc2c(N)nc3ccccc3c21` [Imiquimod] was tested, and the “proliferation of CD4+ T cells (frequency of proliferating cells)” value [1] was “dramatically reduced”, the IFNγ secretion [2] was “dramatically reduced” and the IL-2 secretion [2] was “decrease”. For the same compound, the IL-4 secretion [2] was “decrease”, the IL-17 secretion [2] was “dramatically reduced” and the IFNγ secretion ([2]; listed as IMQ) was “decrease”. The IL-17 secretion ([2]; listed as IMQ) was “decrease”, the “frequency of cytokine-producing cells” value [3] was “diminished in a dose-dependent manner” and the IL-10 secretion ([4]; ELISA day 3) was “neither Foxp3 expression (FIG. 11B-11C) or IL-10 secretion was increased”. For the same compound, the Foxp3 expression ([4]; day 4) was “neither Foxp3 expression (FIG. 11B-11C) or IL-10 secretion was increased”, the CD25 protein expression ([5]; 5 μg/ml IMQ, 24 hours) was “upregulation” and the CD80 protein expression ([5]; 5 μg/ml IMQ, 24 hours) was “upregulation”. The CD86 protein expression ([5]; 5 μg/ml IMQ, 24 hours) was “downregulation”, the HLA-DR protein expression ([5]; 5 μg/ml IMQ, 24 hours) was “upregulation” and the IL-6 secretion ([5]; ELISA) was “secreted significant levels”. The IL-10 secretion ([5]; ELISA) was “decreased”, the IL-113 secretion ([5]; ELISA) was “secreted significant levels” and the TNFα secretion ([5]; ELISA) was “secreted significant levels”. The “phosphorylation state of NFAT1” value [6] was “dephosphorylated”, the “IFNγ production after restimulation” value [7] was “significantly decreased” and the “IL-2 production after restimulation” value [7] was “significantly decreased”. The “phosphorylation of IRAK4” value ([8]; IMQ alone vs vehicle) was “induced”, the “phosphorylation of IRF7” value ([8]; IMQ alone vs vehicle) was “induced” and the “phosphorylation of NFκB” value ([8]; IMQ alone vs vehicle) was “induced”. The “phosphorylation of p38” value ([8]; IMQ alone vs vehicle) was “induced”, the “phosphorylated JNK” value ([8]; IMQ alone vs vehicle, basal levels) was “decreased the basal levels” and the Jun gene expression ([8]; after stimulation) was “decreased”. The NFκB phosphorylation [8, 9] was “did not show an additive effect”, the p38 phosphorylation levels [8, 9] was “further increased” and the JNK phosphorylation [8, 10] was “inhibited; also recorded: decreased”. For the same compound, the Jun phosphorylation [8, 10] was “decreased”.
